Measurements from patent US20250161414A1, “METHOD FOR IMPROVING AUDITORY PERCEPTION USING A VIPR1 INHIBITOR” (ST. JUDE CHILDREN'S RESEARCH HOSPITAL, INC., priority 2022, published 2025).
Where two headings read alike, the source gives them in different places. No end group written: not given here.

What was measured:
[1] = Frequency discrimination (auditory) acuity test, pre-pulse inhibition of acoustic startle response (FDT); type: in vivo, mouse; details: Gad2Cre, i.p., compared to vehicle
Method: (§1) Mouse Behavioral Tests: Frequency Discrimination (Auditory) Acuity Test. Pitch-discrimination acuity was assessed using pre-pulse inhibition (PPI) of the acoustic startle response via a hardware-computer interface (Kinder Scientific, Chula Vista, CA), according to established methods (Aizenberg et al. (2015) PLOS Biol. 13:e1002308; Blundon et al. (2017) Science 356:1352-1356). In brief, a background pure tone (16.4 kHz) was played at a sound pressure level (SPL) of 70 dB throughout the session, unless otherwise noted. Each session was split into four blocks. Block 1 included a 5-minute acclimation period in which the background tone was played. Block 2 included nine startle trials in which a 120-dB SPL, 20-ms white noise (WN) burst was played. Block 3 included prepulse trials and 10 startle-only trials in a pseudo-random order. Each pre-pulse trial included a 70-dB SPL 80-ms pre-pulse (pure-tone frequency was 0%, 1%, 2%, 4%, 8%, 16%, or 32% lower than that of the background tone), followed by a 120-dB SPL, 20-ms WN startle pulse, and then returned to the background tone after the startle. Every trial in Block 3 was presented 10 times. […] PPI percentage was calculated from Block 3 data as follows: [1−(pre-pulse trial/average startle only trial)]*100. […] FDT values were then analyzed using a t-test, a one-way ANOVA, or a paired t-test, as appropriate. […]

[2] = Acoustic startle response (ASR); type: in vivo, mouse; details: C21 i.p., either genotype (Gad2Cre; WT or Gad2Cre; CD+/-)
Method: as §1

[3] = test system: hM4Di-expressing cortical FS interneurons; assay: Current-clamp recording from hM4Di-expressing (mCitrine+) cells in acute cortical slices; type: cell-based, mouse; details: bath application
Method: Single-Cell Electrophysiology: Auditory Thalamocortical Brain Slices. Acute primary thalamocortical (TC) slices (400-μm thick) containing the left ACx and the left ventral part of the medial geniculate nuclei (MGv) of the thalamus were prepared as previously described (Chun et al. (2014) Science 344:1178-1182; Cruikshank et al. (2002) J. Neurophysiol. 87:361-384). Briefly, mouse brains were removed and placed in cold (4° C.) dissecting medium containing 125 mM choline-Cl, 2.5 mM KCl, 0.4 mM CaCl2, 6 mM MgCl2, 1.25 mM NaH2PO4, 26 mM NaHCO3, and 20 mM glucose (300-310 mosm), equilibrated with 95% O2/5% CO2. […] If recorded in current-clamp mode, pyramidal neurons were additionally verified as regularly spiking. […]
Single-Cell Electrophysiology: Whole-Cell Recording. Whole-cell recordings were made with patch pipettes (3-5 MOhm) using a Multiclamp 700B amplifier, digitized (10 kHz) with a Digidata 1440, and recorded using pCLAMP 10 software (all Molecular Devices, San Jose, CA). […] In voltage-clamp recordings, series resistance, input resistance, and holding current were monitored for stability. […] Input resistance and membrane resting voltage were monitored during recordings. […] Drugs were added to ACSF or locally applied via continuous pressure ejection from a large-diameter pipette placed in the slice near the recorded cell. […]

[4] = test system: ACx excitatory neurons; type: cell-based, mouse
[5] = test system: ACx interneurons; assay: Whole-cell voltage-clamp recording of inward voltage-gated current threshold (voltage ramp) in ACx interneurons; type: cell-based, mouse; details: Gtf2ird1+/- and Gtf2ird1-/- cortical interneurons compared to WT interneurons
[6] = test system: FS interneurons in the ACx; assay: Whole-cell current-clamp recording of FS interneuron excitability (rheobase, current ramp) in auditory thalamocortical slices; type: cell-based, mouse; details: for PG 97-269 rheobase shift (difference between rheobase before and after application) / PG 97-269 rheobase shift: FS interneurons

With `c1ccc2c(c1)N=C(N1CCNCC1)c1ccccc1N2` [C21] the “FDT (frequency-discrimination threshold)” value ([1]; CD+/- mice expressing hM4Di in ACx interneurons) was “significantly increased”, the “FDT (frequency-discrimination threshold)” value ([1]; WT mice expressing hM4Di in ACx interneurons) was “not different” and the ASR [2] was “not affected”. The “number of action potentials elicited by depolarizing current injections” value [3] was “decreased”.
For `NC1=N[C@H](O)[C@H]2[C@H]3O[C@]4(O)O[C@@H]([C@@H](O)[C@@]2(N1)[C@@H]4O)[C@]3(O)CO` [tetrodotoxin], the “difference in sEPSC frequencies between WT and CD+/- ACx excitatory neurons after application” value [4] was “abolished”.
For “[Acetyl-His^1, D-Phe^2, Lys^15, Arg^16, Leu^17] VIP (1-7)/GRF (8-27) hybrid with C-terminal amidation (HFDAVFTNSYRKVLKRLSARKLLQDIL; HELM PEPTIDE1{[ac].H.[dF].D.A.V.F.T.N.S.Y.R.K.V.L.K.R.L.S.A.R.K.L.L.Q.D.I.L.[am]}$$$$V2.0; SMILES CC[C@H](C)[C@H](NC(=O)[C@H](CC(=O)O)NC(=O)[C@H](CCC(N)=O)NC(=O)[C@H](CC(C)C)NC(=O)[C@H](CC(C)C)NC(=O)[C@H](CCCCN)NC(=O)[C@H](CCCNC(=N)N)NC(=O)[C@H](C)NC(=O)[C@H](CO)NC(=O)[C@H](CC(C)C)NC(=O)[C@H](CCCNC(=N)N)NC(=O)[C@H](CCCCN)NC(=O)[C@H](CC(C)C)NC(=O)[C@@H](NC(=O)[C@H](CCCCN)NC(=O)[C@H](CCCNC(=N)N)NC(=O)[C@H](Cc1ccc(O)cc1)NC(=O)[C@H](CO)NC(=O)[C@H](CC(N)=O)NC(=O)[C@@H](NC(=O)[C@H](Cc1ccccc1)NC(=O)[C@@H](NC(=O)[C@H](C)NC(=O)[C@H](CC(=O)O)NC(=O)[C@@H](Cc1ccccc1)NC(=O)[C@H](Cc1c[nH]cn1)NC(C)=O)C(C)C)[C@@H](C)O)C(C)C)C(=O)N[C@@H](CC(C)C)C(N)=O) [PG 97-269, VIPR1-specific antagonist]”, the “PG 97-269 threshold shift” value [5] was “significantly reduced”, the “effect on excitability of FS interneurons” value ([6]; ACx of Gtf2ird1+/- and Gtf2ird1-/- mice compared to WT mice) was “either a diminished or no effect” and the “effect on excitability of FS interneurons” value ([6]; CD+/- cortex, interneurons already hyperexcitable) was “no additional effect”. The “PG 97-269 rheobase shift (difference between rheobase before and after application)” value ([6]; CD+/- mice) was “not significantly different from 0”, the “PG 97-269 rheobase shift” value ([6]; Gtf2ird1+/- mice) was “did differ from 0” and the “PG 97-269 rheobase shift” value ([6]; Gtf2ird1-/- mice) was “did not significantly differ from 0”. The “PG 97-269 rheobase shift (difference between rheobase before and after application)” value ([6]; WT mice) was “significantly less than 0”.
For “[Ala^11,22,28]-VIP (HSDAVFTDNYARLRKQMAVKKALNSILA; ends and bridges not checked; UniProt P01282 125-152, looked up, variant T11A Y22A N28A) [VIPR1-specific agonist]”, the “effect of VIPR1-specific agonist on interneurons” value ([6]; WT or CD+/- interneurons, brain slices) was “no significant effect”.
In the case of picrotoxin, the “difference in sEPSC frequencies between WT and CD+/- ACx excitatory neurons after application” value ([4]; L4 ACx excitatory neurons) is reported as “abolished”.
